Reference: patent publication US9828369B2, “Isoquinoline derivatives useful as inhibitors of diacylglyceride O-acyltransferase 2” (Merck Sharp & Dohme Corp., priority 2014, dated 2017)

The compounds below were run against hDGAT2 (Homo sapiens (Human), UniProt Q96PD7) (assay: DGAT2 enzymatic activity assay (triolein formation, LC/MS/MS)). Details: read-out: IC50 values for inhibition of DGAT2; membrane prep of Sf-9 cells expressing hDGAT2; 25 μM diolein, 10 μM oleoyl-CoA; room temperature; triolein by LC/MS/MS.
Sequence of hDGAT2 (Q96PD7 whole entry): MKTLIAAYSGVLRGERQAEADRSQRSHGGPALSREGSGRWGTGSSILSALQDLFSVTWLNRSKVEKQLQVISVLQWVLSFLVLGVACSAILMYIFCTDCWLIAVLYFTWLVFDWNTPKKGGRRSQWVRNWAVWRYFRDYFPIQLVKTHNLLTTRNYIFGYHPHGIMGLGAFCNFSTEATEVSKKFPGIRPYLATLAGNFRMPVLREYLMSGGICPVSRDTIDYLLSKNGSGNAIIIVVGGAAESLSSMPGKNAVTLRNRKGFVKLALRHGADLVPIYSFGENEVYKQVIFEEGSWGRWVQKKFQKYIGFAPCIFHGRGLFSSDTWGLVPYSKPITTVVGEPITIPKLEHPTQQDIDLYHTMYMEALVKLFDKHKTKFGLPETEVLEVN

Row | SMILES | IC50
1 | COc1cccc(-c2ccc(CNC(=O)c3n[nH]c(=O)c4ccccc34)c3cnccc23)c1 [Example 110, N-((5-(3-methoxyphenyl)isoquinolin-8-yl)methyl)-4-oxo-3,4-dihydrophthalazine-1-carboxamide] | 544 nM
2 | COc1cccc(-c2ccc(CNC(=O)c3cccc4cccnc34)c3cnccc23)c1 [Example 32, N-((5-(3-methoxyphenyl)isoquinolin-8-yl)methyl)quinoline-8-carboxamide] | 2010 nM
3 | COc1cccc(-c2ccc(CNC(=O)Cc3ccccc3Oc3ccccc3)c3cnccc23)c1 [Example 55, N-((5-(3-methoxyphenyl)isoquinolin-8-yl)methyl)-2-(2-phenoxyphenyl)acetamide] | 306 nM
4 | COc1cccc(-c2ccc(CNC(=O)Cc3ccc(C(F)(F)F)cc3)c3ncccc23)c1 [Example 150, N-((5-(3-methoxyphenyl)quinolin-8-yl)methyl)-2-(4-(trifluoromethyl)phenyl)acetamide] | 426 nM
5 | COc1cccc(-c2ccc(CNC(=O)C3(c4ccc(C(F)(F)F)cc4)CCC3)c3cnccc23)c1 [Example 123, N-((5-(3-methoxyphenyl)isoquinolin-8-yl)methyl)-1-(4-(trifluoromethyl)phenyl)cyclobutanecarboxamide] | 513 nM
6 | COc1cccc(-c2ccc(CNC(=O)c3cncc(C(F)(F)F)c3)c3cnccc23)c1 [Example 119, N-((5-(3-methoxyphenyl)isoquinolin-8-yl)methyl)-5-(trifluoromethyl)nicotinamide] | 5890 nM
7 | COc1cccc(-c2ccc(CNC(=O)c3ccnc(C(F)(F)F)c3)c3cnccc23)c1 [Example 133, N-((5-(3-methoxyphenyl)isoquinolin-8-yl)methyl)-2-(trifluoromethyl)isonicotinamide] | 571 nM
8 | COc1cccc(-c2ccc(CNC(=O)CCc3nc(-c4ccccc4)no3)c3cnccc23)c1 [Example 30, N-((5-(3-methoxyphenyl)isoquinolin-8-yl)methyl)-3-(3-phenyl-1,2,4-oxadiazol-5-yl)propanamide] | 818 nM
9 | COc1cccc(-c2ccc(CNC(=O)c3cccc(-n4cnnn4)c3)c3cnccc23)c1 [Example 91, N-((5-(3-methoxyphenyl)isoquinolin-8-yl)methyl)-3-(1H-tetrazol-1-yl)benzamide] | 889 nM
10 | COc1cccc(-c2ccc(CNC(=O)Cc3cc(F)c(F)cc3F)c3cnccc23)c1 [Example 59, N-((5-(3-methoxyphenyl)isoquinolin-8-yl)methyl)-2-(2,4,5-trifluorophenyl)acetamide] | 550 nM
11 | COc1cccc(-c2ccc(CNC(=O)C3CC34CCCC4)c3cnccc23)c1 (centres unmarked) [Example 98, N-((5-(3-methoxyphenyl)isoquinolin-8-yl)methyl)spiro[2.4]heptane-1-carboxamide] | 7400 nM
12 | COc1cccc(-c2ccc(CNC(=O)Nc3ccccc3-c3ccccc3)c3cnccc23)c1 [Example 169, 1-([1,1′-biphenyl]-2-yl)-3-((5-(3-methoxyphenyl)isoquinolin-8-yl)methyl)urea] | 7070 nM
13 | COc1cccc(-c2ccc(CNC(=O)Cc3ccc4c(c3)OCCO4)c3cnccc23)c1 [Example 63, 2-(2,3-dihydrobenzo[b][1,4]dioxin-6-yl)-N-((5-(3-methoxyphenyl)isoquinolin-8-yl)methyl)acetamide] | 3050 nM
14 | COc1cccc(-c2ccc(CNC(=O)Cc3cccc(S(C)(=O)=O)c3)c3cnccc23)c1 [Example 56, N-((5-(3-methoxyphenyl)isoquinolin-8-yl)methyl)-2-(3-(methylsulfonyl)phenyl)acetamide] | 1640 nM
15 | CCCc1cc(C(=O)NCc2ccc(-c3cccc(C(=O)OC)c3)c3ccncc23)n(C)n1 [Example 9, methyl 3-(8-((1-methyl-3-propyl-1H-pyrazole-5-carboxamido)methyl)isoquinolin-5-yl)benzoate] | 132 nM
16 | COCc1cccc(-c2ccc(CNC(=O)C3CC3c3ccccc3)c3cnccc23)c1 (centres unmarked) [Example 18, N-((5-(3-(methoxymethyl)phenyl)isoquinolin-8-yl)methyl)-2-phenylcyclopropanecarboxamide] | 278 nM
17 | COc1cccc(-c2ccc(CNC(=O)c3cccc4ncccc34)c3cnccc23)c1 [Example 45, N-((5-(3-methoxyphenyl)isoquinolin-8-yl)methyl)quinoline-5-carboxamide] | 745 nM
18 | COc1cccc(-c2ccc(CNC(=O)C3CC34CCCCC4)c3cnccc23)c1 (centres unmarked) [Example 100, N-((5-(3-methoxyphenyl)isoquinolin-8-yl)methyl)spiro[2.5]octane-1-carboxamide] | 243 nM
19 | COc1cccc(-c2ccc(CNC(=O)c3cccc(-n4cccn4)c3)c3cnccc23)c1 [Example 34, N-((5-(3-methoxyphenyl)isoquinolin-8-yl)methyl)-3-(1H-pyrazol-1-yl)benzamide] | 7360 nM

Row | SMILES | IC50
20 | COc1cccc(-c2ccc(CNC(=O)C3CCCN(c4ccccn4)C3)c3cnccc23)c1 (centres unmarked) [Example 41, N-((5-(3-methoxyphenyl)isoquinolin-8-yl)methyl)-1-(pyridin-2-yl)piperidine-3-carboxamide] | 7780 nM
21 | CCc1cc(C(=O)NCc2ccc(-c3cccc(OC)c3)c3ccncc23)n(C)n1 [Example 35, 3-ethyl-N-((5-(3-methoxyphenyl)isoquinolin-8-yl)methyl)-1-methyl-1H-pyrazole-5-carboxamide] | 3440 nM
22 | COc1cccc(-c2ccc(CNC(=O)Nc3ccc(F)cc3F)c3ncccc23)c1 [Example 170, 1-(2,4-difluorophenyl)-3-((5-(3-methoxyphenyl)quinolin-8-yl)methyl)urea] | 8190 nM
23 | COc1cc(OC)cc(-c2ccc(CNC(=O)Nc3cccc(Cl)c3Cl)c3cnccc23)c1 [Example 152, 1-(2,3-dichlorophenyl)-3-((5-(3,5-dimethoxyphenyl)isoquinolin-8-yl)methyl)urea] | 198 nM
24 | COc1cccc(-c2ccc(CNC(=O)C3CCN(c4ccc(C(F)(F)F)cc4)CC3)c3cnccc23)c1 [Example 128, N-((5-(3-methoxyphenyl)isoquinolin-8-yl)methyl)-1-(4-(trifluoromethyl)phenyl)piperidine-4-carboxamide] | 952 nM
25 | COc1cccc(-c2ccc(CNC(=O)c3cnccc3C(F)(F)F)c3cnccc23)c1 [Example 127, N-((5-(3-methoxyphenyl)isoquinolin-8-yl)methyl)-4-(trifluoromethyl)nicotinamide] | 1420 nM
26 | COc1cccc(-c2ccc(CNC(=O)C3CC3c3ccccn3)c3cnccc23)c1 (centres unmarked) [Example 105, N-((5-(3-methoxyphenyl)isoquinolin-8-yl)methyl)-2-(pyridin-2-yl)cyclopropanecarboxamide] | 7440 nM
27 | COc1cccc(-c2ccc(CNC(=O)c3cc(Br)cnc3-c3ccccc3)c3cnccc23)c1 [Example 120, 5-bromo-N-((5-(3-methoxyphenyl)isoquinolin-8-yl)methyl)-2-phenylnicotinamide] | 4240 nM
28 | COc1cccc(-c2ccc(CNC(=O)c3ccc(-c4cccc(F)c4)cc3)c3cnccc23)c1 [Example 88, 3′-fluoro-N-((5-(3-methoxyphenyl)isoquinolin-8-yl)methyl)-[1,1′-biphenyl]-4-carboxamide] | 1560 nM
29 | COc1cccc(-c2ccc(CNC(=O)c3ccnc(-n4cnnn4)c3)c3cnccc23)c1 [Example 69, N-((5-(3-methoxyphenyl)isoquinolin-8-yl)methyl)-2-(1H-tetrazol-1-yl)isonicotinamide] | 3410 nM
30 | COc1cccc(-c2ccc(CNC(=O)C(C)(C)Oc3cc(C(F)(F)F)ccn3)c3cnccc23)c1 [Example 114, N-((5-(3-methoxyphenyl)isoquinolin-8-yl)methyl)-2-methyl-2-((4-(trifluoromethyl)pyridin-2-yl)oxy)propanamide] | 6110 nM
31 | COc1cccc(-c2ccc(CNC(=O)c3cnn(-c4ccccc4)c3C(F)(F)F)c3cnccc23)c1 [Example 132, N-((5-(3-methoxyphenyl)isoquinolin-8-yl)methyl)-1-phenyl-5-(trifluoromethyl)-1H-pyrazole-4-carboxamide] | 3940 nM
32 | COc1cccc(-c2ccc(CNC(=O)[C@@H]3C[C@@H]3c3ccc(C(F)(F)F)cc3)c3cnccc23)c1 (relative stereo) [Example 144, (cis)-N-((5-(3-methoxyphenyl)isoquinolin-8-yl)methyl)-2-(4-(trifluoromethyl)phenyl) cyclopropanecarboxamide] | 2560 nM
33 | COc1cccc(-c2ccc(CNC(=O)c3ccc4nccnc4c3)c3cnccc23)c1 [Example 40, N-((5-(3-methoxyphenyl)isoquinolin-8-yl)methyl)quinoxaline-6-carboxamide] | 6000 nM
34 | C=C(c1ccccc1)c1ccc(CNC(=O)Nc2cccc(Cl)c2Cl)c2cnccc12 [Example 158, 1-(2,3-dichlorophenyl)-3-((5-(1-phenylyinyl)isoquinolin-8-yl)methyl)urea] | 374 nM
35 | COc1cccc(-c2ccc(CNC(=O)C(C)(C)Oc3ccc(C(F)(F)F)cc3)c3cnccc23)c1 [Example 111, N-((5-(3-methoxyphenyl)isoquinolin-8-yl)methyl)-2-methyl-2-(4-(trifluoromethyl)phenoxy)propanamide] | 1230 nM
36 | COc1cccc(-c2ccc(CNC(=O)c3cc(-c4ccccc4)nn3-c3ccccc3)c3cnccc23)c1 [Example 85, N-((5-(3-methoxyphenyl)isoquinolin-8-yl)methyl)-1,3-diphenyl-1H-pyrazole-5-carboxamide] | 3580 nM
37 | COc1cccc(-c2ccc(CNC(=O)[C@H]3C[C@@H]3c3nc(C)no3)c3cnccc23)c1 (relative stereo) [Example 108, (trans)-N-((5-(3-methoxyphenyl)isoquinolin-8-yl)methyl)-2-(3-methyl-1,2,4-oxadiazol-5-yl) cyclopropanecarboxamide] | 589 nM
38 | COc1cccc(-c2ccc(CNC(=O)c3nn(C)c(=O)c4ccccc34)c3cnccc23)c1 [Example 43, N-((5-(3-methoxyphenyl)isoquinolin-8-yl)methyl)-3-methyl-4-oxo-3,4-dihydrophthalazine-1-carboxamide] | 1570 nM
